Assay results reported in patent US12390472B2 (SUZHOU SINOVENT PHARMACEUTICALS CO., LTD., priority 2018, dated 2025).
Read-outs that look alike come from different tables or passages of the source.

How the values were obtained:
[1] = molecular target: EZH2 (Y641N) (Homo sapiens (Human), UniProt Q15910, Y641N); assay: Test on EZH2 (Y641N) inhibitory activity; format: biochemical
Method: (§1) Compounds at different concentrations were dissolved in 100% DMSO and transferred to test plates, and the final concentration of DMSO was 1%. Enzyme solution and substrate SAM solution were prepared with 1-fold reaction buffer (optimized Tris buffer). 5 uL of enzyme solution was added to the test plate and wells only added with 5 uL of reaction buffer were used as negative control wells. After incubation at room temperature for 15 min, the plate was added with 5 uL of substrate solution per well to initiate the reaction, and then incubated at room temperature for 60 min. 5 uL of receptor solution was added and the plate was incubated away from light at room temperature for 60 min. 10 uL of donor solution was added and the plate was incubated away from light at room temperature for 30 min. The endpoint values were read on the Envision and the IC50 was calculated.
(§2) Data were fitted by GraphPad Prism 5 software and inhibition rate was calculated according to equation (1) Inh %=(Max−Signal)/(Max−Min)×100 (1)
(§3) IC50 was calculated using equation (2) Y=Bottom+(Top−Bottom)/(1+10^((Log IC50−X)×Hill Slope))
(§4) Y: inhibition rate; X: concentration of the compound

[2] = molecular target: EZH2 (Y641F) (Homo sapiens (Human), UniProt Q15910, Y641F); assay: Test on EZH2 (Y641F) inhibitory activity; format: biochemical
Method: as §1, §2, §3, §4

[3] = molecular target: EZH2 (wt) (Homo sapiens (Human), UniProt Q15910); assay: Test on EZH2 (wt) inhibitory activity ([3H]-SAM Flashplate); format: biochemical
Method: Protocols Compounds at different concentrations were dissolved in 100% DMSO and transferred to test plates, and the final concentration of DMSO was 1%. The enzyme solution and the mixture solution of peptide and [3H]-SAM were prepared with 1-fold reaction buffer. 10 uL of enzyme solution was added to the test plate and wells only added with 10 uL of reaction buffer were used as negative control wells. After incubation at room temperature for 15 min, the plate was added with 10 uL of the mixture solution of peptide and [3H]-SAM per well to initiate the reaction which lasts for 60 min at room temperature. The pre-cooled SAM was added to 1-fold reaction buffer to prepare a stop buffer. The reaction was stopped by adding 10 uL of stop buffer per well. 25 uL of solution was transferred from the reaction plate to Flashplate and incubated at room temperature for at least 1 h. The Flashplate was washed 3 times with dH2O+0.1% Tween-20. The plate was read by Microbeta.
as §2, §3, §4

[4] = test system: WSU-DLCL2 cells; assay: Experiment on WSU-DLCL2 cell proliferation (Calcein-AM); format: cell-based; conditions: Homo sapiens
Method: WSU-DLCL2 cells were plated in a 96-well plate and 100 uL of cells (a density of 1×10^5 cells/mL) and 50 uL of compound stock at 3-fold concentration was added to each well, and the final volume was 150 uL/well. After 6 days of culturing, on day 7, the cells in the well plate were mixed well by pipetting, and 50 uL of the cell suspension was pipetted to be tested for cell viability using Calcein-AM. 50 uL of the cell suspension was added to a 96-well plate coated by poly-D-Lysine, and then 50 uL of HBSS containing 2 uM Calcein-AM was added to make the final concentration of Calcein-AM 1 uM. After incubation for 10 min at room temperature, the cells were rapidly centrifuged to be deposited on the bottom of the plate. The cells were cultured in the incubator for another 40 min and then the plate was read on Acumen.
The remaining cells were diluted and then plated in a 96-well plate, and 100 uL of cells and 50 uL of a compound at 3-fold concentration were added to each well for further culturing until day 14, and the cell viability was detected as described above. The IC50 was calculated.

[5] = test system: Pfeiffer cells; assay: Experiment on Pfeiffer cell proliferation (CellTiter-Glo); format: cell-based, human; conditions: Homo sapiens
Method: 90 uL of cells were added to each well of a 96-well plate at 12000 cells/well, and cell-free culture medium was added to blank control wells. The plate was incubated overnight in an incubator at 37° C., 5% CO2 and 100% relative humidity. The compounds were diluted from highest to lowest concentration gradient with DMSO to make stock solutions at 400-fold and 10-fold concentration. 10 μL of 10× compound working solution was added to the cell culture plate, and the total concentration of the compound was detected from 10 μM, 9 concentration points in total, and 3-fold serial dilution was performed. 10 μL of DMSO-cell culture medium mixture solution was added to the vehicle control wells and blank control wells. The final concentration of DMSO was 0.25%. The plate was put back in the incubator for another 7 days of culturing.
The cell culture plate cultured for 7 days was taken out of the incubator, and the suspended cells in the 96-well plate were mixed well by pipetting multiple times. 74 uL of fresh cell culture medium was added to a new 96-well plate, and 16 uL of cell suspension was pipetted from the 96-well plate with cells mixed well by pipetting into the new 96-well plate to bring the total volume to 90 uL. Cells in the new 96-well plate were treated with the compound. The new 96-well plate was put back in the incubator for another 7 days of culturing, and then cell viability was detected directly.
84 μL of cell suspension was taken from the cell culture plate for cell viability detection.
CellTiter-Glo buffer and substrate were thawed and balanced to room temperature. The CellTiter-Glo buffer was added to a bottle of CellTiter-Glo substrate to dissolve the substrate, thereby preparing CellTiter-Glo working solution. The bottle was subjected to slow vortex shaking to completely dissolve the substrate. The cell culture plate was taken out and balanced to room temperature for 30 min. 50 μL of CellTiter-Glo working solution was added to each well. The cell plate was wrapped with aluminum foil to keep out of light. The plate was shaken on an orbital shaker for 2 min to induce cell lysis. The plate was placed at room temperature for 10 min to stabilize the luminescence signals. The luminescence signals were detected on 2104 En Vision plate reader.
Inhibition rates of compounds at different concentrations were calculated in Excel, followed by plotting the inhibition curves and calculating relevant parameters including minimum (%), maximum (%), and absolute IC50 using GraphPad Prism software.

[6] = In vivo pharmacokinetic properties in mice; parameters: species or system mouse; conditions: male ICR mice; for F: intragastric 250 mg/kg vs intravenous 5 mg/kg; for CL / AUC(0-inf) / Cmax / Tmax / half-life: single intravenous 5 mg/kg and intragastric 250 mg/kg study; for AUC(0-inf) / Cmax / Tmax / half-life: mouse, plasma; for AUC(0-inf) / Cmax / Tmax: oral; for Cmax: read-out: Cmax; for Tmax: read-out: Tmax
How it was run: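 Male ICR mice, n=3 per group, dosed once at 5 mg/kg IV in 10% DMSO/90% (20% Captisol) or 250 mg/kg intragastrically in 0.5% CMC-Na/0.1% Tween 80 (pH 3-4). EDTA-K2 plasma sampled from 5 min to 24 h; compound levels measured by LC-MS/MS.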

[7] = test system: subcutaneous xenograft tumor model of human B lymphocyte Pfeiffer; assay: In vivo efficacy in subcutaneous xenograft tumor model of human B lymphocyte Pfeiffer; parameters: species or system mouse; conditions: SCID Beige mice, 100 mg/kg p.o. QD 21 days, tumor volume 21 days after administration
Method: Human B lymphocyte strain Pfeiffer was cultured in vitro, in a monolayer way, in a RPMI-1640 medium containing 10% fetal bovine serum, 100 U/mL penicillin and 100 μg/mL streptomycin in an incubator at 37° C./5% CO2. Conventional medium refreshment and subculturing were carried out twice a week, and cells in logarithmic growth phase were collected and used for tumor inoculation after being counted.
Female SCID Beige mice, aged 6-8 weeks and weighed 18-22 g were used in the experiment. The experiment started after 7-day adaptive feed.
Each mouse was inoculated subcutaneously with 10×10^6 Pfeiffer cells in a volume of 0.2 mL in the right side of the neck. The cells were suspended with PBS and matrigel (volume ratio 1:1). After the average tumor volume reached 130 mm^3, the mice were divided into groups with 8 mice per group for administration. The administration volume was 10 uL/g and the dose was 100 mg/kg if there's no special labeling ((p.o. administration, QD, continuous administration for 21 days).
Animal body weights were measured twice weekly and animal mortality and side effects within each group were recorded based on the number of animals in the group.
The experimental indices were to investigate whether tumor growth was inhibited or delayed or the tumor was cured. Tumor diameters were measured twice weekly using a vernier caliper. The tumor volume was calculated according to the following formula: V=0.5 a×b^2, where a and b represent the long diameter and short diameter of the tumor, respectively. The tumor growth inhibitions (TGIs) of the compounds were evaluated by T/C (%). The percentage value of T/C (%) is an index for reflecting the tumor growth inhibition, where T and C represent the average tumor volume of the administration group and the control group, respectively, at a certain day.
The tumor growth inhibition rate was calculated according to the following formula: TGI (%)=(1−(Ti−T0)/(Vi−V0))×100, where Ti is the average tumor volume of a certain administration group on a certain day, T0 is the average tumor volume of the administration group at the start of administration, Vi is the average tumor volume of the vehicle control group on a certain day (same day as Ti) and V0 is the average tumor volume of the vehicle control group at the start of administration.
Relative tumor volumes at each time point for each group were statistically analyzed and differences among groups were assessed based on the data. The statistical method used for testing was one-way ANOVA.

Chain of EZH2 (Y641N) (Q15910 whole entry Y641N): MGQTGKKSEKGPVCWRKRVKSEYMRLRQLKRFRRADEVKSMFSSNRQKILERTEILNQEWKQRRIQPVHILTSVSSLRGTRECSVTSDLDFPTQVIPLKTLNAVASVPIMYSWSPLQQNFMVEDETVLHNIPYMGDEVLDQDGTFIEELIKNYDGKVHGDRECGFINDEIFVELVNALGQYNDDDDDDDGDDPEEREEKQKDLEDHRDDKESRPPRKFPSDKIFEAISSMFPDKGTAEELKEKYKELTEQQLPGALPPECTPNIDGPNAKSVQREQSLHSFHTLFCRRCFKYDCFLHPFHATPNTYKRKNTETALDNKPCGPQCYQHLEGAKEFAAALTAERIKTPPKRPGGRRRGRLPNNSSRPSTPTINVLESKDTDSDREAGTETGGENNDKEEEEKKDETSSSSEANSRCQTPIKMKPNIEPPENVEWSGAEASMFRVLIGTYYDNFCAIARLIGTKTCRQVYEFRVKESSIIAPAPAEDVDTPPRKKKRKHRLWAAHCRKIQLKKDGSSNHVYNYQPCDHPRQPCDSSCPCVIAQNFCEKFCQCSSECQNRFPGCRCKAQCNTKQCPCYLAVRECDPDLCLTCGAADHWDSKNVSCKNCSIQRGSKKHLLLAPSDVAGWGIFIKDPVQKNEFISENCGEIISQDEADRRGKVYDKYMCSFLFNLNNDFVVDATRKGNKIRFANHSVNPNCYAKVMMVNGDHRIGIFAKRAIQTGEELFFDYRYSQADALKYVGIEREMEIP
Chain of EZH2 (Y641N) (O75530 whole entry partner): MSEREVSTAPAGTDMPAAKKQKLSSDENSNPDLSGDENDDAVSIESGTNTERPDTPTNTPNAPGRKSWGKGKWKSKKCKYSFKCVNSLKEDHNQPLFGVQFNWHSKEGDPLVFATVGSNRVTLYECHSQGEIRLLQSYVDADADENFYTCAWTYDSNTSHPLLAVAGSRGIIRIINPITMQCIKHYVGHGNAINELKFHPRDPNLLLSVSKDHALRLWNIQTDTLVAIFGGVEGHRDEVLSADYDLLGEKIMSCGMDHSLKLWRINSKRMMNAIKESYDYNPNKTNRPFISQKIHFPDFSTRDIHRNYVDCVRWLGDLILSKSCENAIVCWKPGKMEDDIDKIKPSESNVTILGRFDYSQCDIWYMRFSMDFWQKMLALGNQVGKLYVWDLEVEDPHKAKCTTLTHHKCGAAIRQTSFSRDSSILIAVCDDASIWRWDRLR
Chain of EZH2 (Y641N) (Q15022 whole entry partner): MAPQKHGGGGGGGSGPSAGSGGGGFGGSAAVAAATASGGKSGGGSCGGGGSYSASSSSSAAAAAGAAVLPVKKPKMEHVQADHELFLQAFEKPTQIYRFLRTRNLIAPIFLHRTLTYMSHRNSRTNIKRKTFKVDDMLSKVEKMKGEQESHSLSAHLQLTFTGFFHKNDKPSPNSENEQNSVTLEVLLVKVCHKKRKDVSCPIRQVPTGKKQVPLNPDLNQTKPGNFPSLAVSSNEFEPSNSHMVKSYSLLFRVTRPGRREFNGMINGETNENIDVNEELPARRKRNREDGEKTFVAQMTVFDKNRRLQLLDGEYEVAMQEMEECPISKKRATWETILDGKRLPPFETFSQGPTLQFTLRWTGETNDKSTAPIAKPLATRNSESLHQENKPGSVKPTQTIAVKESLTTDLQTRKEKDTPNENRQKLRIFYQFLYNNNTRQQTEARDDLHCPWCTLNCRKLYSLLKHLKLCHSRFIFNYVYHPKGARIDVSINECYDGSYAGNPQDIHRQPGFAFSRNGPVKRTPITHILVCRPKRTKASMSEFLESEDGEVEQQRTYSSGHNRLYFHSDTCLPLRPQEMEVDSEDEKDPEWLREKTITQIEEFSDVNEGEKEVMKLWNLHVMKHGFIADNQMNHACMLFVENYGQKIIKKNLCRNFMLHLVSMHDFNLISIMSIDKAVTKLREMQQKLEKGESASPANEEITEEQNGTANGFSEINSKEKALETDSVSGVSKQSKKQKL
Chain of EZH2 (Y641F) (Q15910 whole entry Y641F): as the sequence (Q15910 whole entry Y641N) above, with N641F counted along it
Chain of EZH2 (Y641F) (O75530 whole entry partner): as the sequence (O75530 whole entry partner) above
Chain of EZH2 (Y641F) (Q15022 whole entry partner): as the sequence (Q15022 whole entry partner) above
Chain of EZH2 (wt) (Q15910 whole entry): as the sequence (Q15910 whole entry Y641N) above, with N641Y counted along it
Chain of EZH2 (wt) (O75530 whole entry partner): as the sequence (O75530 whole entry partner) above
Chain of EZH2 (wt) (Q15022 whole entry partner): as the sequence (Q15022 whole entry partner) above

Row | Compound | IC50 [1] [nM] | IC50 [2] [nM] | IC50 [3] [nM] | IC50 ([4]; WSUDLCL2, 168 h, WSU-DLCL2, Day 7, read-out: IC50 WSU-DLCL2 proliferation Day 7) [nM] | IC50 ([4]; WSUDLCL2, 336 h, WSU-DLCL2, Day 14, read-out: IC50 WSU-DLCL2 proliferation Day 14) [nM] | IC50 ([5]; 168 h, Day 7, read-out: IC50 Pfeiffer proliferation Day 7) [nM] | IC50 ([5]; 336 h, Day 14, read-out: IC50 Pfeiffer proliferation Day 14) [nM] | F [6] [%] | CL [6] [mL/min/lg] | AUC(0-inf) [6] [ng·h/mL] | Cmax [6] [ng/mL] | Tmax [6] [h] | half-life [6] [h] | TGI [7] [%]
1 | CCN(c1cc(O[C@H]2C[C@H](N3C[C@@H](C)O[C@@H](C)C3)C2)cc(C(=O)NCc2c(OC)cc(C)[nH]c2=O)c1C)C1CCC(F)(F)CC1 [Example 87, 3-((4,4-difluorocyclohexyl)(ethyl)amino)-5-(trans-3-(cis-2,6-dimethylmorpholino)cyclobutoxy)-N-((4-methoxy-6-methyl-2-oxo-1,2-dihydropyridin-3-yl)methyl)-2-methylbenzamide] | 2.6 | 5.5 | 1.2 | 40 | 9 | 20 | 4.3 | 35.4 | 31.0 ± 2.82 | 47800 | 10600 ± 4150 | 0.83 ± 0.29 | 5.77 ± 1.51 | 42.84
2 | CCN(c1cc(O[C@H]2C[C@H](N3C[C@@H](C)O[C@@H](C)C3)C2)cc(C(=O)NCc2c(OC)cc(C)[nH]c2=O)c1C)C1CC2CCC(C1)O2 (stereo partly drawn) [Example 88, 3-((8-oxabicyclo[3.2.1]octan-3-yl)(ethyl)amino)-5-(trans-3-(cis-2,6-dimethylmorpholinyl)cyclobutoxy)-N-((4-methoxy-6-methyl-2-oxo-1,2-dihydropyridin-3-yl)methyl)-2-methylbenzamide] | 2 | 3.3 | 1.1 |  |  |  |  | 33.4 | 60.4 ± 0.15 | 23000 ± 4540 | 10200 ± 1450 | 0.5 | 2.26 ± 0.87 | 32.83
3 | CCN(c1cc(O[C@H]2C[C@H](N3CCCCC3)C2)cc(C(=O)NCc2c(OC)cc(C)[nH]c2=O)c1C)C1CCOCC1 [Example 93, 3-(ethyl(tetrahydro-2H-pyran-4-yl)amino)-N-((4-methoxy-6-methyl-2-oxo-1,2-dihydropyridin-3-yl)methyl)-2-methyl-5-(trans-3-(piperidin-1-yl)cyclobutoxy)benzamide] | < 0.51 | < 0.51 | < 0.51 |  |  |  |  | 23.1 | 45.17 ± 4.21 | 21500 ± 2110 | 10700 ± 4120 | 0.33 ± 0.14 | 1.3 ± 0.64 | 
